Assay results: PMC12119673, “Apoptotic cell death induced by copper (II), manganese (II) and silver (I) complexes containing bridging dicarboxylate and 1,10-phenanthroline ligands: one of the multi-modes of anticancer activity?” (Biometals, 2025)

Tests used:
Type in all cases: cell-based, human
[1] = system: caspase-3/7 in MCF-12A cells; test: Caspase 3/7 expression, FLICA (FAM-DEVD-FMK) flow cytometry; details: IC25 concentration, 24 h
Protocol: The expression of caspase-3/7 in MCF-7 and MCF-12A cells was determined using the VybrantTM FAM™ Caspase-3 and Caspase-7 Assay Kit (Cat# V35118) (Thermo Fisher Scientific, Ireland). Cells were seeded at a density of 1 × 10^5 in T25 flasks and incubated in routine conditions for 24 h. […] Post-exposure, the cells were harvested for staining.
Flow cytometry data analysis was performed with the CytExpert package (Ver. 2.4) (Beckman Coulter, USA) and Microsoft^Ⓡ Excel (USA). The mean MFI and percentage cells were calculated using these packages, followed by one-way ANOVA analysis with post hoc Bonferroni correction using GraphPad Prism (Ver. 9.4) (GraphPad, USA).
The expression of caspase-3/7 was analysed in MCF-7 and MCF-12A cells using fluorescent labelled inhibitors of caspase (FLICA): FAM-DEVD-FMK. […] Following the apoptosis induction study, it was of interest to determine whether the complexes were stimulating the executioner caspases triggering the irreversible proteolytic degradation of cells, culminating in cell death. […] These three complexes were selected based on their structural similarities, while incorporating alternative metal centres.

[2] = In vitro cytotoxicity assessment, alamar blue assay, 24-h exposure; details: human, MCF-12A cells; MCF-12A, 24-h exposure, 50% reduction in metabolic activity, mean ± SD (N = 3); read-out: Cytotoxic activity IC50 ± SD
Protocol: The MCF-7 (human breast cancer) and MCF-12A (non-tumourigenic human breast) cell lines were obtained from the Technological University Dublin (TUDublin, City Campus) internal cell bank and commercially from the American Type Culture Collection (ATCC), respectively. Both cell lines were cultured using Dulbecco’s Modified Eagle Medium/Nutrient Mixture F-12 Ham (DMEM-F12) (Sigma, Ireland) (Cat# D6421) media. The MCF-7 media was supplemented with 10% Foetal Bovine Serum (Sigma, Ireland) (Cat# F7524) and 1% L-Glutamine (Sigma, Ireland) (Cat# 592020C). The MCF-12A media was supplemented with 5% Equine Serum (Sigma, Ireland) (Cat# H0146) 1.25% L-Glutamine (Sigma, Ireland) (Cat# 592020C), 20 ng/ml Human Epidermal Growth Factor (Thermo Fisher Scientific, Ireland) (Cat# PHG0313), 0.01 mg/ml insulin (Thermo Fisher Scientific, Ireland)(Cat# 12585014) and 500 ng/ml hydrocortisone (Sigma, Ireland) (Cat# H0888). The cells were grown in T75 culture flasks (Sarstedt, Germany) (Cat# 83.3911.002) and were incubated in a 5% CO2 atmosphere at 37 ℃. The cells were monitored daily, and once 80–90% confluence was reached, they were subcultured with an enzymatic dissociation method using trypsin. Both cell lines were routinely subcultured for 1 week prior to beginning experimental work, to ensure the cells had adapted to the environment.
The MCF-7 and MCF-12A cells were seeded at a density of 1 × 10^4 in 96-well flat bottom plates (Sarstedt, Germany) (Cat# 83.3924) and incubated in a 5% CO2 atmosphere at 37 ℃ for 24 h prior to exposure to the complexes. Following the incubation period, the media was removed, and cells were washed with sterile phosphate-buffered saline (PBS). […] All agents were diluted in supplemented cell culture media, and the cells were exposed to a concentration range of 0.5 μM–100 μM for 24 h in the conditions outlined previously. Following the exposure period, the drug-containing media was removed, and cells were washed three times with PBS, ensuring complete removal of the test agents. A 5% working solution of Alamar Blue (Thermo Fisher Scientific, Ireland) (Cat# DAL1100) was prepared in dark conditions using unsupplemented cell culture media. 100 μl of the solution was added to each well, and the cells were incubated for 3 h. Following incubation, absorbance values were obtained using a Varioskan Lux (Thermo Scientific, USA) at 570 nm and 600 nm wavelengths. Each exposure was carried out in triplicate plates and was repeated three independent times.
The software packages Microsoft^Ⓡ Excel (USA) and GraphPad Prism (Ver. 10.0.3) (GraphPad, USA) were used to analyse the alamar blue data. The treated sample values were first normalised to the negative control values. After normalisation, the mean and standard deviations (SD) were established using Microsoft^Ⓡ Excel. The statistical analysis package GraphPad was then used to determine the IC25 and IC50 concentrations. […] A p value of 0.05 or lower is considered to be statistically significant.

[3] = system: MCF-12A cells; test: Detection of reactive oxygen species with H2DCFDA; details: 0.78 μM to 50 μM, over a 6-h period, fold-change compared to the negative control
Protocol: The production of reactive oxygen species (ROS) was detected in MCF-7 and MCF12A cells using the cell-permeant dye 2',7'- dichlorodihydrofluorescein diacetate (H2DCFDA) (Thermo Fisher Scientific, Ireland) (Cat# D399). Cells were seeded at a density of 1 × 10^4 in 96 well plates and incubated for 24 h. Post-incubation, the media was removed, and cells were washed with PBS. A 10 μM DCFH-DA working solution was prepared using cell culture media, and the cells were incubated with 100 μl of the solution in the dark for 30 min. […] Fluorescent measurements were recorded at 15 min, 30 min, 1 h, and subsequently every hour up to 6 h using a Varioskan Lux™ multimode microplate reader (Thermo Fisher Scientific, Ireland) at an excitation wavelength of 495 nm and emission of 527 nm. The assay was repeated three independent times, using three replicates per plate.
The cells were treated with a concentration range from 0.78 μM to 50 μM, and the response was measured over a 6-h period. This facilitated the evaluation of whether there was a time and/or concentration dependent response from the cells. Hydrogen peroxide (H2O2) was used as a positive control. ROS production is presented as fold-change compared to the negative control.

In the case of `O=C([O-])CCCCCCC(=O)[O-].[Ag+].[Ag+].c1cnc2c(c1)ccc1cccnc12.c1cnc2c(c1)ccc1cccnc12.c1cnc2c(c1)ccc1cccnc12` [Complex 4, [Ag2(oda)(phen)3]], the “Expression of caspase-3/7 (% cells)” value [1] is reported as “highest expression”.
For `c1cnc2c(c1)ccc1cccnc12` [Phen, 1,10-Phenanthroline], the IC50 at 24 h [2] was 20.9 ± 1.96 µM.
For “{[Mn2(oda)3(phen)4]^2−[Mn2(oda)(phen)4 (H2O)2]^2+} [Complex 7]”, the ROS production [3] was “markedly elevated production of ROS”.
